Reference: a compilation of properties of binary mixtures (doi:10.1098/rsos.241459/v2/response1)

Assay: xn = mol fraction of the nth substance listed
Settings: 298.15 K, 100 kPa

Compound | electrical conductivity (x2 = 0) [S/m] | viscosity (x2 = 0) [mPa·s] | viscosity (x1 = 0.0895) [mPa·s] | electrical conductivity (x1 = 0.1758) [S/m] | viscosity (x1 = 0.1758) [mPa·s] | electrical conductivity (x1 = 0.3578) [S/m] | viscosity (x1 = 0.3578) [mPa·s] | electrical conductivity (x1 = 0.4397) [S/m] | viscosity (x1 = 0.4397) [mPa·s] | electrical conductivity (x1 = 0.6482) [S/m] | viscosity (x1 = 0.6482) [mPa·s] | viscosity (x1 = 0.8121) [mPa·s]
OCCO + CCCC[n+]1ccn(C)c1.F[B-](F)(F)F | 0.001 | 17.41 | – | – | – | – | – | – | – | – | – | –
CCCC[n+]1ccn(C)c1.F[B-](F)(F)F + OCCO | – | – | 15.5 | 0.63 | 15.52 | 0.727 | 18.87 | 0.766 | 21.3 | 0.577 | 31.97 | 51.8
